In US20250179052A1, “PYRIMIDINYL-OXY-QUINOLINE BASED HERBICIDAL COMPOUNDS” (SYNGENTA CROP PROTECTION AG, priority 2022, published 2025):

Columns and labels:
Settings in all cases: 250 g/ha, evaluated after 13 days, five-point scale
[1] = tested on: Amaranthus retoflexus (AMARE); test: Post-emergence herbicidal glasshouse test; assay type: in vivo
AMAPA [2] = test: Post-emergence herbicidal glasshouse test; assay type: in vivo, Amaranthus tuberculatus
[3] = tested on: Ipomoea hederacea (IPOHE); test: Pre-emergence herbicidal glasshouse test; assay type: in vivo
[4] = tested on: Amaranthus retoflexus (AMARE); test: Pre-emergence herbicidal glasshouse test; assay type: in vivo
[5] = tested on: Echinochloa crus-galli (ECHCG); test: Post-emergence herbicidal glasshouse test; assay type: in vivo
[6] = tested on: Echinochloa crus-galli (ECHCG); test: Pre-emergence herbicidal glasshouse test; assay type: in vivo
[7] = tested on: Ipomoea hederacea (IPOHE); test: Post-emergence herbicidal glasshouse test; assay type: in vivo
AMAPA [8] = test: Pre-emergence herbicidal glasshouse test; assay type: in vivo, Amaranthus tuberculatus

Structure (SMILES): FC(F)(F)c1ncc2c(Oc3ncc(C4CC4)cn3)cccc2n1 [Compound 1.012]
- percentage damage caused to the plant, AMARE [1]: 1 (1=0-20%)
- percentage damage caused to the plant, AMAPA (AMAPA [2]): 1 (1=0-20%)
- percentage damage caused to the plant, IPOHE [3]: 1 (1=0-20%)
- percentage damage caused to the plant, AMARE [4]: 1 (1=0-20%)
- percentage damage caused to the plant, ECHCG [5]: 1 (1=0-20%)
- percentage damage caused to the plant, ECHCG [6]: 1 (1=0-20%)
- percentage damage caused to the plant, IPOHE [7]: 1 (1=0-20%)
- percentage damage caused to the plant, AMAPA (AMAPA [8]): 1 (1=0-20%)

Structure (SMILES): Fc1cnc(Oc2cccc3nc(C(F)(F)Cl)ncc23)nc1 [Compound 1.061, 2-[chloro(difluoro)methyl]-5-(5-fluoropyrimidin-2-yl)oxy-quinazoline]
- percentage damage caused to the plant, AMARE [1]: 4 (4=61-80%)
- percentage damage caused to the plant, AMAPA (AMAPA [2]): 4 (4=61-80%)
- percentage damage caused to the plant, IPOHE [3]: 5 (5=81-100%)
- percentage damage caused to the plant, AMARE [4]: 5 (5=81-100%)
- percentage damage caused to the plant, ECHCG [5]: 4 (4=61-80%)
- percentage damage caused to the plant, ECHCG [6]: 5 (5=81-100%)
- percentage damage caused to the plant, IPOHE [7]: 4 (4=61-80%)
- percentage damage caused to the plant, AMAPA (AMAPA [8]): 5 (5=81-100%)

Structure (SMILES): Cc1ccc(Oc2ncc(Cl)cn2)c2ccc(C(F)(F)F)nc12 [Compound 1.035]
- percentage damage caused to the plant, AMARE [1]: 3 (3=41-60%)
- percentage damage caused to the plant, AMAPA (AMAPA [2]): 3 (3=41-60%)
- percentage damage caused to the plant, IPOHE [3]: 1 (1=0-20%)
- percentage damage caused to the plant, AMARE [4]: 2 (2=21-40%)
- percentage damage caused to the plant, ECHCG [5]: 1 (1=0-20%)
- percentage damage caused to the plant, ECHCG [6]: 1 (1=0-20%)
- percentage damage caused to the plant, IPOHE [7]: 2 (2=21-40%)
- percentage damage caused to the plant, AMAPA (AMAPA [8]): 2 (2=21-40%)

Structure (SMILES): FC(F)(Cl)c1ncc2c(Oc3ncc(Br)cn3)cccc2n1 [Compound 1.055, 5-(5-bromopyrimidin-2-yl)oxy-2-[chloro(difluoro)methyl]quinazoline]
- percentage damage caused to the plant, AMARE [1]: 2 (2=21-40%)
- percentage damage caused to the plant, AMAPA (AMAPA [2]): 3 (3=41-60%)
- percentage damage caused to the plant, IPOHE [3]: 2 (2=21-40%)
- percentage damage caused to the plant, AMARE [4]: 5 (5=81-100%)
- percentage damage caused to the plant, ECHCG [5]: 2 (2=21-40%)
- percentage damage caused to the plant, ECHCG [6]: 4 (4=61-80%)
- percentage damage caused to the plant, IPOHE [7]: 2 (2=21-40%)
- percentage damage caused to the plant, AMAPA (AMAPA [8]): 5 (5=81-100%)

Structure (SMILES): Fc1cnc(Oc2ccc(Br)c3nc(C(F)(F)F)ccc23)nc1 [Compound 1.033]
- percentage damage caused to the plant, AMARE [1]: 2 (2=21-40%)
- percentage damage caused to the plant, AMAPA (AMAPA [2]): 1 (1=0-20%)
- percentage damage caused to the plant, IPOHE [3]: 1 (1=0-20%)
- percentage damage caused to the plant, AMARE [4]: 3 (3=41-60%)
- percentage damage caused to the plant, ECHCG [5]: 1 (1=0-20%)
- percentage damage caused to the plant, ECHCG [6]: 1 (1=0-20%)
- percentage damage caused to the plant, IPOHE [7]: 1 (1=0-20%)
- percentage damage caused to the plant, AMAPA (AMAPA [8]): 3 (3=41-60%)

Structure (SMILES): FC(F)c1ncc2c(Oc3ncc(Cl)cn3)ccc(Cl)c2n1 [Compound 1.054]
- percentage damage caused to the plant, AMARE [1]: 2 (2=21-40%)
- percentage damage caused to the plant, AMAPA (AMAPA [2]): 2 (2=21-40%)
- percentage damage caused to the plant, IPOHE [3]: 1 (1=0-20%)
- percentage damage caused to the plant, AMARE [4]: 5 (5=81-100%)
- percentage damage caused to the plant, ECHCG [5]: 1 (1=0-20%)
- percentage damage caused to the plant, ECHCG [6]: 2 (2=21-40%)
- percentage damage caused to the plant, IPOHE [7]: 1 (1=0-20%)
- percentage damage caused to the plant, AMAPA (AMAPA [8]): 5 (5=81-100%)

Structure (SMILES): N#Cc1ccc(Oc2ncc(Cl)cn2)c2cnc(C(F)(F)F)nc12 [Compound 1.065]
- percentage damage caused to the plant, AMARE [1]: 1 (1=0-20%)
- percentage damage caused to the plant, AMAPA (AMAPA [2]): 1 (1=0-20%)
- percentage damage caused to the plant, IPOHE [3]: 1 (1=0-20%)
- percentage damage caused to the plant, AMARE [4]: 1 (1=0-20%)
- percentage damage caused to the plant, ECHCG [5]: 1 (1=0-20%)
- percentage damage caused to the plant, ECHCG [6]: 1 (1=0-20%)
- percentage damage caused to the plant, IPOHE [7]: 2 (2=21-40%)
- percentage damage caused to the plant, AMAPA (AMAPA [8]): 1 (1=0-20%)

Structure (SMILES): FC(F)c1ncc2c(Oc3ncc(Br)cn3)ccc(Cl)c2n1 [Compound 1.039]
- percentage damage caused to the plant, AMARE [1]: 2 (2=21-40%)
- percentage damage caused to the plant, AMAPA (AMAPA [2]): 2 (2=21-40%)
- percentage damage caused to the plant, IPOHE [3]: 1 (1=0-20%)
- percentage damage caused to the plant, AMARE [4]: 1 (1=0-20%)
- percentage damage caused to the plant, ECHCG [5]: 1 (1=0-20%)
- percentage damage caused to the plant, ECHCG [6]: 1 (1=0-20%)
- percentage damage caused to the plant, IPOHE [7]: 1 (1=0-20%)
- percentage damage caused to the plant, AMAPA (AMAPA [8]): 1 (1=0-20%)

Structure (SMILES): COc1ncc2c(Oc3ncc(F)cn3)ccc(Br)c2n1 [Compound 1.030]
- percentage damage caused to the plant, AMARE [1]: 2 (2=21-40%)
- percentage damage caused to the plant, AMAPA (AMAPA [2]): 3 (3=41-60%)
- percentage damage caused to the plant, IPOHE [3]: 1 (1=0-20%)
- percentage damage caused to the plant, AMARE [4]: 1 (1=0-20%)
- percentage damage caused to the plant, ECHCG [5]: 1 (1=0-20%)
- percentage damage caused to the plant, ECHCG [6]: 1 (1=0-20%)
- percentage damage caused to the plant, IPOHE [7]: 1 (1=0-20%)
- percentage damage caused to the plant, AMAPA (AMAPA [8]): 1 (1=0-20%)

Structure (SMILES): COc1nc(C)c2c(Oc3ncc(Cl)cn3)cccc2n1 [Compound 1.024]
- percentage damage caused to the plant, AMARE [1]: 1 (1=0-20%)
- percentage damage caused to the plant, AMAPA (AMAPA [2]): 2 (2=21-40%)
- percentage damage caused to the plant, IPOHE [3]: 1 (1=0-20%)
- percentage damage caused to the plant, AMARE [4]: 3 (3=41-60%)
- percentage damage caused to the plant, ECHCG [5]: 1 (1=0-20%)
- percentage damage caused to the plant, ECHCG [6]: 1 (1=0-20%)
- percentage damage caused to the plant, IPOHE [7]: 1 (1=0-20%)
- percentage damage caused to the plant, AMAPA (AMAPA [8]): 3 (3=41-60%)

Structure (SMILES): Fc1cnc(Oc2cccc3nc(C(F)F)ncc23)nc1 [Compound 1.058]
- percentage damage caused to the plant, AMARE [1]: 2 (2=21-40%)
- percentage damage caused to the plant, AMAPA (AMAPA [2]): 2 (2=21-40%)
- percentage damage caused to the plant, IPOHE [3]: 3 (3=41-60%)
- percentage damage caused to the plant, AMARE [4]: 5 (5=81-100%)
- percentage damage caused to the plant, ECHCG [5]: 1 (1=0-20%)
- percentage damage caused to the plant, ECHCG [6]: 1 (1=0-20%)
- percentage damage caused to the plant, IPOHE [7]: 4 (4=61-80%)
- percentage damage caused to the plant, AMAPA (AMAPA [8]): 5 (5=81-100%)

Structure (SMILES): COc1ncc2c(Oc3ncc(Br)cn3)ccc(Br)c2n1 [Compound 1.031]
- percentage damage caused to the plant, AMARE [1]: 1 (1=0-20%)
- percentage damage caused to the plant, AMAPA (AMAPA [2]): 1 (1=0-20%)
- percentage damage caused to the plant, IPOHE [3]: 1 (1=0-20%)
- percentage damage caused to the plant, AMARE [4]: 1 (1=0-20%)
- percentage damage caused to the plant, ECHCG [5]: 1 (1=0-20%)
- percentage damage caused to the plant, ECHCG [6]: 1 (1=0-20%)
- percentage damage caused to the plant, IPOHE [7]: 1 (1=0-20%)
- percentage damage caused to the plant, AMAPA (AMAPA [8]): 1 (1=0-20%)

Structure (SMILES): Cc1cnc(Oc2ccc(C)c3nc(C(F)(F)F)ccc23)nc1 [Compound 1.025]
- percentage damage caused to the plant, AMARE [1]: 2 (2=21-40%)
- percentage damage caused to the plant, AMAPA (AMAPA [2]): 3 (3=41-60%)
- percentage damage caused to the plant, IPOHE [3]: 1 (1=0-20%)
- percentage damage caused to the plant, AMARE [4]: 1 (1=0-20%)
- percentage damage caused to the plant, ECHCG [5]: 1 (1=0-20%)
- percentage damage caused to the plant, ECHCG [6]: 1 (1=0-20%)
- percentage damage caused to the plant, IPOHE [7]: 2 (2=21-40%)
- percentage damage caused to the plant, AMAPA (AMAPA [8]): 1 (1=0-20%)

Structure (SMILES): Fc1cnc(Oc2ccc(Cl)c3nc(C(F)F)ncc23)nc1 [Compound 1.046]
- percentage damage caused to the plant, AMARE [1]: 2 (2=21-40%)
- percentage damage caused to the plant, AMAPA (AMAPA [2]): 1 (1=0-20%)
- percentage damage caused to the plant, IPOHE [3]: 1 (1=0-20%)
- percentage damage caused to the plant, AMARE [4]: 5 (5=81-100%)
- percentage damage caused to the plant, ECHCG [5]: 1 (1=0-20%)
- percentage damage caused to the plant, ECHCG [6]: 1 (1=0-20%)
- percentage damage caused to the plant, IPOHE [7]: 2 (2=21-40%)
- percentage damage caused to the plant, AMAPA (AMAPA [8]): 4 (4=61-80%)

Structure (SMILES): Cc1ccc(Oc2ncc(F)cn2)c2cnc(C(F)F)nc12 [Compound 1.027]
- percentage damage caused to the plant, AMARE [1]: 2 (2=21-40%)
- percentage damage caused to the plant, AMAPA (AMAPA [2]): 2 (2=21-40%)
- percentage damage caused to the plant, IPOHE [3]: 1 (1=0-20%)
- percentage damage caused to the plant, AMARE [4]: 2 (2=21-40%)
- percentage damage caused to the plant, ECHCG [5]: 1 (1=0-20%)
- percentage damage caused to the plant, ECHCG [6]: 1 (1=0-20%)
- percentage damage caused to the plant, IPOHE [7]: 2 (2=21-40%)
- percentage damage caused to the plant, AMAPA (AMAPA [8]): 2 (2=21-40%)

Structure (SMILES): Cc1nc(C(F)F)nc2cccc(Oc3ncc(F)cn3)c12 [Compound 1.052]
- percentage damage caused to the plant, AMARE [1]: 1 (1=0-20%)
- percentage damage caused to the plant, AMAPA (AMAPA [2]): 1 (1=0-20%)
- percentage damage caused to the plant, IPOHE [3]: 1 (1=0-20%)
- percentage damage caused to the plant, AMARE [4]: 2 (2=21-40%)
- percentage damage caused to the plant, ECHCG [5]: 1 (1=0-20%)
- percentage damage caused to the plant, ECHCG [6]: 2 (2=21-40%)
- percentage damage caused to the plant, IPOHE [7]: 2 (2=21-40%)
- percentage damage caused to the plant, AMAPA (AMAPA [8]): 1 (1=0-20%)
